≈ marks a conversion by molar mass, not a printed value.

Test system in one series: not given
Assay: not given
To be noted: pH 6.8.
As to “4-((S)-1-(6-((1S,4S)-2,5-Diazabicyclo[2.2.1]heptan-2-yl)-1-methyl-1H-pyrrolo[3,2-b]pyridin-5-yl)ethylamino)-2-amino-6-methylpyrimidine-5-carbonitrile [Example 14]”, the “Thermodynamic Solubility in JP2” value is >1830 µg/mL.

Test system in a further series: not listed separately
Briefly: Thermodynamic solubility assay in JP2. To be noted: JP2 (Japan Pharmacopoeia 2nd fluid for dissolution), 37 °C, pH 6.8, aqueous buffer, thermodynamic from solid.
Protocol: Testing media for both assays are prepared as follows: • JP1 (Japan Pharmacopoeia 1st fluid for dissolution): In a 1 L volumetric flask, dissolve 2.0 g sodium chloride in about 500 mL deionized water. Add 84 mL of 1M hydrochloric acid and dilute to volume with deionized water. Mix thoroughly. • JP2 (Japan Pharmacopoeia 2nd fluid for dissolution): In a 1 L volumetric flask dissolve 6.806 g of anhydrous potassium phosphate monobasic in about 500 mL of deionized water. Add 23.6 mL of 1M sodium hydroxide and dilute to volume with deionized water. Mix thoroughly. • GCDC (20-mM sodium glycochenodeoxycholate in JP2): In a 50 mL volumetric flask, dissolve 0.475 g of sodium glycochenodeoxycholate with ˜30 mL JP2. Dilute to volume with additional JP2. Mix thoroughly. • Other pH buffers between pH 2-6 can also be prepared as additional testing media.
About 3 mg of compound is weighed into an HPLC vial. Testing medium (0.5 mL) is then added to the compound vial. The vial is sealed with a screw-on cap and placed in an incubator set at 37° C. with orbital shaking at 150 RPM for overnight equilibration. At the end of equilibration, the final pH is measured, and whether the compound is totally dissolved (clear solution) or not (solid in vial) is recorded. Then the sample mixture is transferred to a centrifuge tube with filter insert (0.45 μm nylon filter) and centrifuge filtered. The filtrate is diluted appropriately (2 to 50× dilution) before HPLC analysis. A calibration standard is prepared by dissolving ˜5 mg of compound in diluent and q.s. to volume in a 20 mL volumetric flask. A separate QC standard is prepared at about the same concentration. The default diluent is 1:1 acetonitrile/water. Alternative diluents such as 1:1 DMA/water and other mixtures may also be used depending on the solubility behavior of the compound. The calibration response factor is calculated by dividing the standard peak area with standard concentration. The sample solubility in a test medium is calculated by dividing the sample peak area with the corresponding standard response factor and multiplied by sample dilution factor. The response factor from QC standard is also calculated and compared with calibration standard. If the response factors of the calibration and QC standard differ by more than 5%, new calibration and QC standards should be prepared and samples are reanalyzed with new standards.
Regarding `C[C@H](Nc1nc(N)nc(N)c1C#N)c1nc2ccn(C)c2cc1C1CCOCC1` [A, reference compound], the solubility (thermodynamic) stood at 20 µg/mL (≈ 51 µM). On the same count and under the same terms, in the case of `C[C@H](Nc1nc(N)nc(N)c1C#N)c1nc2ccn(C)c2cc1N1CCOCC1` [B, reference compound] it was 26 µg/mL (≈ 66.1 µM); in that of `Cc1nc(N)nc(N[C@@H](C)c2nc3ccn(C)c3cc2N2CCN[C@@H](C)C2)c1C#N` [Example 6, 2-Amino-4-methyl-6-((S)-1-(1-methyl-6-((S)-3-methylpiperazin-1-yl)-1H-pyrrolo[3,2-b]pyridin-5-yl)ethylamino)pyrimidine-5-carbonitrile], 1730 µg/mL (≈ 4270 µM); in that of `Cc1nc(N)nc(N[C@@H](C)c2nc3ccn(C)c3cc2C2CCNCC2)c1C#N` [Example 12, (S)-2-Amino-4-methyl-6-(1-(1-methyl-6-(piperidin-4-yl)-1H-pyrrolo[3,2-b]pyridin-5-yl)ethylamino)pyrimidine-5-carbonitrile], 150 µg/mL (≈ 384 µM).

The same series, now with this note: solid free base, JP2 (Japan Pharmacopoeia 2nd fluid), 37° C., overnight equilibration.
Consider “(S)-2-Amino-4-methyl-6-(1-(1-methyl-6-(piperazin-1-yl)-1H-pyrrolo[3,2-b]pyridin-5-yl)ethylamino)pyrimidine-5-carbonitrile [Example 1]”, for which the “Thermodynamic Solubility in JP2” value is 2195 µg/mL.

For a further series, the target named is T1, PI3Kδ (recombinant GST-tagged PIK3CD co-expressed with PIK3R1, p85α) (Homo sapiens, UniProt O00329).
T1 construct: The protein is full length and co-expressed with untagged PIK3R1; GST; purchased Invitrogen PV5274
T1 sequence (O00329 whole entry): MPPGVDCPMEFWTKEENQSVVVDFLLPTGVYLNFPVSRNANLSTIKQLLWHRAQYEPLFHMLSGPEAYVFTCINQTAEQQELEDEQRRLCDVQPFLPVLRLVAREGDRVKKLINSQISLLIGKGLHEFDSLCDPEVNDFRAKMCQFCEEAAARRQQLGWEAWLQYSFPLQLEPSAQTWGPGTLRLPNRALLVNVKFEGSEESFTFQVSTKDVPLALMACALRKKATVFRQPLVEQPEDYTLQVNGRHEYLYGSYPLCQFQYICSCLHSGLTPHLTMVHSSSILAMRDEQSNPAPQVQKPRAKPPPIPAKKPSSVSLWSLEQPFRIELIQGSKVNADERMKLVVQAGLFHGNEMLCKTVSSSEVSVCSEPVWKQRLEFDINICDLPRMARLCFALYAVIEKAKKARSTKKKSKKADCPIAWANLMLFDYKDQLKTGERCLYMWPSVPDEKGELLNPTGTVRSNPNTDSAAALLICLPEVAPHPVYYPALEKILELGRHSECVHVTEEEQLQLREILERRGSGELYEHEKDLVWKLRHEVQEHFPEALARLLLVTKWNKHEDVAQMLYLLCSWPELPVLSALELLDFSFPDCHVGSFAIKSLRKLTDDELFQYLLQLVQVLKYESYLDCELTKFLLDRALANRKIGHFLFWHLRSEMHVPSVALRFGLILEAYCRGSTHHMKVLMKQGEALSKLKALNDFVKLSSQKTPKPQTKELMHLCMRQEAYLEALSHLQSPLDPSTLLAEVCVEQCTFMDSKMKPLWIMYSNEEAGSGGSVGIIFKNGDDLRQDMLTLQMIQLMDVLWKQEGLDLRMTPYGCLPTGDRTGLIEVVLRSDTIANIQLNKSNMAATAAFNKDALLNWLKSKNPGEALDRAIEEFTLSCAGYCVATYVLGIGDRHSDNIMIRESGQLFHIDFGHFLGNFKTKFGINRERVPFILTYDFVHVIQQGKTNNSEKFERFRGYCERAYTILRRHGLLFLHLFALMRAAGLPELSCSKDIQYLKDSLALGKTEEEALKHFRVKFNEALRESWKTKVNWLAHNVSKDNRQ
T1 sequence (P27986 whole entry partner): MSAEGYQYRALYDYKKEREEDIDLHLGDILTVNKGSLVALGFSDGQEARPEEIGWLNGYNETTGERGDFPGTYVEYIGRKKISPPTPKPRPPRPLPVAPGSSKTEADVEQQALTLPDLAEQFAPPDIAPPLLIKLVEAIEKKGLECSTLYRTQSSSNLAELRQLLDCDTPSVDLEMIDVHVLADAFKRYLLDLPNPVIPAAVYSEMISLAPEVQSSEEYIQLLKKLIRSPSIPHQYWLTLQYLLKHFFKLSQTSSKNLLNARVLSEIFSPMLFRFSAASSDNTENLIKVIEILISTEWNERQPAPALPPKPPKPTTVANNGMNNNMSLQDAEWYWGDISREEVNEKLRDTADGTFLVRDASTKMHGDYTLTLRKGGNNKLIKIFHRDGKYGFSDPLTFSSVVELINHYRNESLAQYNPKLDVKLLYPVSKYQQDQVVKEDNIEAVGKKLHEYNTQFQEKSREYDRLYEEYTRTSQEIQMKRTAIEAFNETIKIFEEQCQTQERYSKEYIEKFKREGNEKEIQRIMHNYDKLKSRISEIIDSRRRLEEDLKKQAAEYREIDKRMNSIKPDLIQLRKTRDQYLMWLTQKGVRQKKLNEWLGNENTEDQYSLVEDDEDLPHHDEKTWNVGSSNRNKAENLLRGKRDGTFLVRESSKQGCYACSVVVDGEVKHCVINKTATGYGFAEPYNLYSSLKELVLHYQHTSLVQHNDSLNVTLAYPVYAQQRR
Briefly: modified PIK3CD Adapta TR-FRET kinase assay (PI3Kδ inhibition). Type of series: biochemical. To be noted: 2 μM ATP, 50 μM PIP2, room temperature, 1 hour. Here is the method:
The activity of compounds as PI3Kδ inhibitors may be determined by a variety of methods, including in vitro and in vivo methods. The following in vitro assay measures a test compound's ability to inhibit PI3Kδ-mediated phosphorylation of PIP2 and ATP.
Recombinant GST-tagged PIK3CD is purchased from Invitrogen (Part Number: PV5274). The protein is full length and co-expressed with untagged PIK3R1, phosphoinositide-3-kinase regulatory subunit 1 (p85α). The protein is stored at −20° C. in 50 mM TRIS (pH 7.5), 150 mM NaCl, 0.5 mM EDTA, 0.02% Triton® X-100, 2 mM DTT, and 50% glycerol.
A modified PIK3CD Adapta® assay (Invitrogen, Carlsbad, Calif.) is used to measure PI3Kδ inhibition of the example compounds. The assay has two phases. In the first phase, kinase reaction components, which include the enzyme (PIK3CD), substrates (PIP2, ATP), test compound (inhibitor), and assay buffer are added to each well, and the reaction is allowed to incubate for a pre-determined period of time. After reaction, a detection solution composed of a Eu (europium)-labeled anti-ADP antibody, Alexa Fluor® 647-labeled ADP tracer, and EDTA (to stop the kinase reaction) is added to each assay well. In this second phase, ADP formed by the kinase reaction displaces the Alexa Fluor® 647-labeled ADP tracer from the antibody, resulting in a decrease in time-resolved fluorescence resonance energy transfer (TR-FRET) signal. In the presence of the inhibitor, the amount of ADP formed by the kinase reaction is reduced, and the resulting intact antibody-tracer interaction maintains a high TR-FRET signal.
The assay uses black Greiner® 384-well plates (784076). The reaction buffer contains 50 mM Hepes (pH 7.5), 3 mM MgCl2, 1 mM EGTA, 100 mM NaCl, 0.03% CHAPS; 2 mM DTT is added fresh prior to each experiment. Enzyme (4 μL, estimated 1.5 nM in buffer) is first added to the wells of the plate. Next, test compounds (2 μL) from a source plate (5% dilution plate) are introduced into the wells. The final DMSO concentration in each assay well is 1%. […] Other wells contain test compounds serially diluted across the plate 11 times for a total of 12 data points. The kinase reactions are carried out at room temperature and are initiated by the addition of 4 μL of solution containing 2 μM ATP and 50 μM PIP2. Each reaction is stopped after 1 hour±10 minutes via addition of […], which contains a final assay concentration of 3 nM Alexa Fluor® 647-labeled ADP tracer, 2 nM Eu-anti-ADP Antibody, and 10 mM EDTA. After allowing the solutions to equilibrate for 30±10 minutes, a PHERAstar plate reader is used to excite the Eu donor (at 337 nm) and to detect emission from the Alexa Fluor® 647 at 665 nm. This emission signal is referenced or “ratioed” to the emission from Eu at 620 nm. The emission ratio (665 nm/620 nm) from each well is collected and converted to percent conversion using a standard curve for the assay conditions: % conversion=B*(C+A−emission ratio)/(emission ratio−C), where “A” and “C” are the maximum and minimum values of the emission ratio obtained from the standard curve of emission ratio vs. % conversion (ATP-ADP); “B” is the emission ratio corresponding to the % conversion at the EC50 value for the ADP Tracer-Eu anti-ADP antibody complex. The percent inhibition for a given inhibitor concentration is computed from % conversion for the reaction and for the positive and negative controls. Corresponding IC50 values (molar concentration at 50% inhibition) are calculated by non-linear curve fitting of the compound concentrations and values of percent inhibition to the standard IC50 equation.
Background: TR-FRET usually uses a lanthanide donor and a delayed reading to cut background.
For “4-((S)-1-(6-((1S,4S)-2,5-Diazabicyclo[2.2.1]heptan-2-yl)-1-methyl-1H-pyrrolo[3,2-b]pyridin-5-yl)ethylamino)-2-amino-6-methylpyrimidine-5-carbonitrile [Example 14]”, the IC50 came out at 0.6 nM. Same read-out and setting: in the case of `Cc1nc(N)nc(N[C@@H](C)c2nc3ccn(C)c3cc2C2CCC(N)CC2)c1C#N` (mixture of isomers) [Example 18, (S)-2-Amino-4-((1-(6-(4-aminocyclohexyl)-1-methyl-1H-pyrrolo[3,2-b]pyridin-5-yl)ethyl)amino)-6-methylpyrimidine-5-carbonitrile] it was 1.7 nM; in that of `Cc1nc(N)nc(N[C@@H](C)c2nc3ccn(C)c3cc2N2CCC[C@@H](N)C2)c1C#N` (single isomer, unassigned) [Example 4], 2.9 nM; in that of `Cc1nc(N)nc(N[C@@H](C)c2nc3ccn(C)c3cc2N2CCC[C@H](N)C2)c1C#N` (single isomer, unassigned) [Example 5], 5.4 nM.

For `Cc1nc(N)nc(N[C@@H](C)c2nc3ccn(C)c3cc2N2CC[C@@H](N)C2)c1C#N` (single isomer, unassigned) [Example 7], the IC50 is 4.2 nM.

As for `Cc1nc(N)nc(N[C@@H](C)c2nc3ccn(C)c3cc2N2CC[C@H](N)C2)c1C#N` (single isomer, unassigned) [Example 8], the IC50 amounted to 2.6 nM. The same measure, in the same setting: to `Cc1nc(N)nc(N[C@@H](C)c2nc3ccn(C)c3cc2[C@@H]2CCNC2)c1C#N` (single isomer, unassigned) [Example 10] belongs 3.5 nM; to `Cc1nc(N)nc(N[C@@H](C)c2nc3ccn(C)c3cc2[C@H]2CCNC2)c1C#N` (single isomer, unassigned) [Example 11], 1.3 nM.

Consider `Cc1nc(N)nc(N[C@@H](C)c2nc3ccn(C)c3cc2N2CCCNCC2)c1C#N` [Example 2, (S)-4-(1-(6-(1,4-Diazepan-1-yl)-1-methyl-1H-pyrrolo[3,2-b]pyridin-5-yl)ethylamino)-2-amino-6-methylpyrimidine-5-carbonitrile], for which the IC50 came out at 5 nM.

With `CN[C@H]1CCN(c2cc3c(ccn3C)nc2[C@H](C)Nc2nc(N)nc(C)c2C#N)C1` [Example 3, 2-Amino-4-methyl-6-((S)-1-(1-methyl-6-((S)-3-(methylamino)pyrrolidin-1-yl)-1H-pyrrolo[3,2-b]pyridin-5-yl)ethylamino)pyrimidine-5-carbonitrile], the IC50 is 5.6 nM.

In the case of `Cc1nc(N)nc(N[C@@H](C)c2nc3ccn(C)c3cc2N2CCN[C@@H](C)C2)c1C#N` [Example 6, 2-Amino-4-methyl-6-((S)-1-(1-methyl-6-((S)-3-methylpiperazin-1-yl)-1H-pyrrolo[3,2-b]pyridin-5-yl)ethylamino)pyrimidine-5-carbonitrile], the IC50 worked out at 5 nM. Same read-out and setting: to `Cc1nc(N)nc(N[C@@H](C)c2nc3ccn(C)c3cc2N2CCN[C@H](C)C2)c1C#N` [Example 9, 2-Amino-4-methyl-6-((S)-1-(1-methyl-6-((R)-3-methylpiperazin-1-yl)-1H-pyrrolo[3,2-b]pyridin-5-yl)ethylamino)pyrimidine-5-carbonitrile] belongs 2.2 nM. The same measure, in the same setting: in the case of `Cc1nc(N)nc(N[C@@H](C)c2nc3ccn(C)c3cc2C2CCNCC2)c1C#N` [Example 12, (S)-2-Amino-4-methyl-6-(1-(1-methyl-6-(piperidin-4-yl)-1H-pyrrolo[3,2-b]pyridin-5-yl)ethylamino)pyrimidine-5-carbonitrile] it was 1.4 nM.

Regarding `C[C@H](Nc1nc(N)nc(N)c1C#N)c1nc2ccn(C)c2cc1N1CCNCC1` [Example 13, (S)-2,4-Diamino-6-(1-(1-methyl-6-(piperazin-1-yl)-1H-pyrrolo[3,2-b]pyridin-5-yl)ethylamino)pyrimidine-5-carbonitrile], the IC50 worked out at 1 nM.

On to `Cc1nc(N)nc(N[C@@H](C)c2nc3ccn(C)c3cc2NC2CCNCC2)c1C#N` [Example 15, (S)-2-Amino-4-methyl-6-((1-(1-methyl-6-(piperidin-4-ylamino)-1H-pyrrolo[3,2-b]pyridin-5-yl)ethyl)amino)pyrimidine-5-carbonitrile], for which the IC50 came out at 5.5 nM. For `Cc1nc(N)nc(N[C@@H](C)c2nc3ccn(C)c3cc2N(C)C2CNC2)c1C#N` [Example 16, (S)-2-Amino-4-((1-(6-(azetidin-3-yl(methyl)amino)-1-methyl-1H-pyrrolo[3,2-b]pyridin-5-yl)ethyl)amino)-6-methylpyrimidine-5-carbonitrile], the IC50 is 2.4 nM.

With `Cc1nc(N)nc(N[C@@H](C)c2nc3ccn(C)c3cc2C2=CCC(N)CC2)c1C#N` (stereo partly drawn) [Example 17, 2-Amino-4-(((1S)-1-(6-(4-aminocyclohex-1-en-1-yl)-1-methyl-1H-pyrrolo[3,2-b]pyridin-5-yl)ethyl)amino)-6-methylpyrimidine-5-carbonitrile], the IC50 came out at 8.5 nM.

Turning to `CC[C@H](Nc1nc(N)nc(C)c1C#N)c1nc2ccn(C)c2cc1N1CCNCC1` [Example 19, (S)-2-Amino-4-methyl-6-((1-(1-methyl-6-(piperazin-1-yl)-1H-pyrrolo[3,2-b]pyridin-5-yl)propyl)amino)pyrimidine-5-carbonitrile], the IC50 amounted to 0.8 nM. For the compound `CCc1nc(N)nc(N[C@@H](C)c2nc3ccn(C)c3cc2N2CCNCC2)c1C#N` [Example 20, (S)-2-Amino-4-ethyl-6-((1-(1-methyl-6-(piperazin-1-yl)-1H-pyrrolo[3,2-b]pyridin-5-yl)ethyl)amino)pyrimidine-5-carbonitrile], the IC50 amounted to 220 nM. Same read-out and setting: to “(S)-2-Amino-4-methyl-6-(1-(1-methyl-6-(piperazin-1-yl)-1H-pyrrolo[3,2-b]pyridin-5-yl)ethylamino)pyrimidine-5-carbonitrile [Example 1]” belongs 0.7 nM.

For orientation: solubility (thermodynamic) means solubility found after equilibrating the solid with the medium. Broadly, the IC50 is the concentration at which inhibition is half-maximal.

For the origin of these results see US9371321B2, “Azaindole derivatives” (Takeda Pharmaceutical Company Limited, priority 2014, dated 2016).
